Measurements published in the supplement of paper PMC11451515.

Test system: SEM cells
Test: cell viability relative to DMSO control; higher = less cytotoxic
Details: 48 h
Procedure, shortened: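 Leukemia cells (NOMO1 or SEM, 500 cells/well; P12-Ichikawa, 1000 cells/well) were seeded in 5 μl in 1536-well plates after at least four passages of adaptation to each medium. They received library compounds in DMSO by pin dosing, 11 threefold points from 47 μM to 0.79 nM. Luminescence with CellTiter-Glo One was read after 48 h at 37°C. Viability is stated per plate relative to DMSO wells, with cell-free wells as background.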

[1] = HPLM + 10% dialyzed FBS, 0.000781 µM
[2] = HPLM + 10% dialyzed FBS, 0.00234 µM
[3] = HPLM + 10% dialyzed FBS, 0.00702 µM
[4] = HPLM + 10% dialyzed FBS, 0.0211 µM
[5] = HPLM + 10% dialyzed FBS, 0.0632 µM
[6] = HPLM + 10% dialyzed FBS, 0.19 µM
[7] = HPLM + 10% dialyzed FBS, 0.569 µM
[8] = HPLM + 10% dialyzed FBS, 1.71 µM
[9] = HPLM + 10% dialyzed FBS, 5.12 µM
[10] = HPLM + 10% dialyzed FBS, 15.4 µM
[11] = HPLM + 10% dialyzed FBS, 46.1 µM
[12] = RPMI 5 mM glucose + 10% FBS, 0.000781 µM
[13] = RPMI 5 mM glucose + 10% FBS, 0.00234 µM
[14] = RPMI 5 mM glucose + 10% FBS, 0.00702 µM
[15] = RPMI 5 mM glucose + 10% FBS, 0.0211 µM
[16] = RPMI 5 mM glucose + 10% FBS, 0.0632 µM
[17] = RPMI 5 mM glucose + 10% FBS, 0.19 µM
[18] = RPMI 5 mM glucose + 10% FBS, 0.569 µM
[19] = RPMI 5 mM glucose + 10% FBS, 1.71 µM
[20] = RPMI 5 mM glucose + 10% FBS, 5.12 µM
[21] = RPMI 5 mM glucose + 10% FBS, 15.4 µM
[22] = RPMI 5 mM glucose + 10% FBS, 46.1 µM
[23] = RPMI 5 mM glucose + 10% dialyzed FBS, 0.000781 µM
[24] = RPMI 5 mM glucose + 10% dialyzed FBS, 0.00234 µM
[25] = RPMI 5 mM glucose + 10% dialyzed FBS, 0.00702 µM
[26] = RPMI 5 mM glucose + 10% dialyzed FBS, 0.0211 µM
[27] = RPMI 5 mM glucose + 10% dialyzed FBS, 0.0632 µM
[28] = RPMI 5 mM glucose + 10% dialyzed FBS, 0.19 µM
[29] = RPMI 5 mM glucose + 10% dialyzed FBS, 0.569 µM
[30] = RPMI 5 mM glucose + 10% dialyzed FBS, 1.71 µM
[31] = RPMI 5 mM glucose + 10% dialyzed FBS, 5.12 µM
[32] = RPMI 5 mM glucose + 10% dialyzed FBS, 15.4 µM
[33] = RPMI 5 mM glucose + 10% dialyzed FBS, 46.1 µM

Compound	cell viability [1]	cell viability [2]	cell viability [3]	cell viability [4]	cell viability [5]	cell viability [6]	cell viability [7]	cell viability [8]	cell viability [9]	cell viability [10]	cell viability [11]	cell viability [12]	cell viability [13]	cell viability [14]	cell viability [15]	cell viability [16]	cell viability [17]	cell viability [18]	cell viability [19]	cell viability [20]	cell viability [21]	cell viability [22]	cell viability [23]	cell viability [24]	cell viability [25]	cell viability [26]	cell viability [27]	cell viability [28]	cell viability [29]	cell viability [30]	cell viability [31]	cell viability [32]	cell viability [33]
CC1(C)CCC(=C(\C1)C2=CC=C(Cl)C=C2)/CN3CCN(CC3)C4=CC(=C(C=C4)C(=O)N[S+]([O-])(=O)C5=CC=C(NCC6CCOCC6)C(=C5)[N+]([O-])=O)OC7=CN=C8[NH]C=CC8=C7	104%	95.1%	99.3%	62.7%	43.7%	12.6%	8.25%	7.7%	7.49%	7.18%	5.72%	124%	105%	123%	76.2%	70%	20.3%	11.1%	7.11%	6.79%	5.86%	4.71%	102%	90.8%	88.3%	53.8%	38%	16.5%	8.07%	6.59%	6.67%	5.3%	4.75%
CN1CCC(=C2c3ccccc3CCc3sccc32)CC1	75.4%	85%	107%	94.1%	101%	109%	93.3%	111%	102%	95.8%	51.1%	81.8%	104%	97.4%	106%	96.1%	113%	111%	120%	97.3%	117%	82.1%	82.5%	110%	114%	99.5%	104%	118%	122%	111%	124%	108%	68.3%
CCCC[N+]1(C)[C@@H]2CC(OC(=O)[C@H](CO)c3ccccc3)C[C@H]1[C@@H]1O[C@@H]12 (some centres undefined)	112%	113%	120%	125%	118%	126%	110%	127%	109%	131%	123%	–	–	–	–	–	–	–	–	–	–	–	–	–	–	–	–	–	–	–	–	–	–
CC=CC1=C(C(=O)O)N2C(=O)[C@@H](NC(=O)[C@H](N)c3ccc(O)cc3)[C@H]2SC1.O	71.1%	70.5%	79.2%	92.5%	91.4%	81.3%	90.1%	83.9%	72.8%	91.6%	82.1%	86.4%	96.4%	93.8%	97.7%	90.9%	92.9%	98.8%	115%	86.6%	105%	94.6%	84.8%	97%	98.4%	115%	109%	86.1%	110%	110%	84.7%	112%	114%
Cc1cc(-c2ccc(CC(=O)Nc3ccc(-c4cccnc4)cc3)cc2)ccn1	115%	112%	123%	118%	118%	119%	123%	87.8%	80.8%	12.7%	18.4%	101%	123%	131%	133%	124%	129%	131%	112%	123%	24.5%	15.5%	113%	113%	126%	106%	110%	124%	128%	112%	104%	21.7%	16%
CN1CCN(c2cc(C(=O)Nc3ccc4c(c3)-c3c(c(C(N)=O)nn3-c3ccc(F)cc3)CC4)c(Cl)cn2)CC1	93.3%	95.7%	103%	109%	116%	110%	105%	103%	110%	81.8%	4.03%	–	–	–	–	–	–	–	–	–	–	–	125%	109%	121%	131%	138%	120%	103%	104%	109%	106%	3.39%
C[C@@H](Oc1ccc2[nH]nc(/C=C/c3cnn(CCO)c3)c2c1)c1c(Cl)cncc1Cl	90.3%	86.4%	85.9%	85.9%	85.6%	58.6%	31.3%	37.2%	20%	14.8%	30.9%	118%	136%	103%	103%	108%	75.5%	32.7%	42.8%	15.6%	13.8%	21%	82.4%	84.6%	82%	73.5%	80%	50.9%	17.5%	33.7%	12.4%	10.9%	20.9%
Clc1ccc(C(Cn2ccnc2)OCc2ccc(Sc3ccccc3)cc2)c(Cl)c1 (centres undefined)	88.8%	74.9%	99.2%	96.4%	98.2%	79.4%	93.6%	77.9%	82.1%	87.1%	81.1%	110%	104%	109%	108%	116%	106%	105%	92.2%	77%	92.7%	95.8%	101%	95.7%	107%	122%	130%	100%	103%	93.5%	81%	96.8%	75.7%
CCCCCCCN(CC)CCCC(O)c1ccc(NS(C)(=O)=O)cc1.CCCCCCCN(CC)CCCC(O)c1ccc(NS(C)(=O)=O)cc1.O=C(O)/C=C/C(=O)O (centres undefined)	88.9%	93.2%	95.1%	104%	74.8%	109%	96.7%	108%	97.7%	114%	15%	83.9%	102%	93.3%	90.7%	56.4%	95.4%	88.9%	122%	96.5%	94%	10.3%	87.4%	99.9%	105%	103%	74.6%	90.6%	112%	114%	94.2%	91.9%	11.6%
Oc1ccc(-c2nc(-c3ccncc3)c(-c3ccc(F)cc3)[nH]2)cc1	83.4%	90.6%	102%	107%	104%	69.1%	42.4%	45.4%	7.43%	2.46%	0.872%	105%	86.9%	89.5%	93.6%	76.1%	54.7%	34.9%	30.3%	1.32%	0.723%	0.55%	114%	99.9%	104%	98.8%	83%	48.4%	41.3%	32.8%	5.58%	1.19%	0.981%
CN1C(=O)C(=C/2N(C(=O)N(C3CC3)C(=O)C2=C1/NC4=CC=C(I)C=C4F)C5=CC=CC(=C5)NC(C)=O)\C	–	–	–	–	–	–	–	–	–	–	–	107%	129%	118%	129%	136%	114%	85.6%	60.1%	7.99%	4.7%	4.99%	–	–	–	–	–	–	–	–	–	–	–
COc1cc([C@@H]2c3cc4c(cc3[C@@H](O)C3COC(=O)C32)OCO4)cc(OC)c1O (some centres undefined)	73.2%	86.7%	86%	21.1%	84.4%	46.9%	22.2%	24.3%	16.6%	11.3%	9.58%	96.4%	83.3%	101%	13.1%	104%	47.6%	19.7%	14.7%	9.69%	4.01%	4.26%	78.6%	70.2%	98.2%	16.1%	82.9%	52.8%	19%	19.5%	11.8%	7.08%	4.88%
NC/1=N/C(=O)C2=C([NH]C=C2CCC3=CC=C(C=C3)C(=O)N[C@@H](CCC(O)=O)C(O)=O)N1	118%	103%	107%	115%	114%	110%	80.2%	45.7%	39.4%	38.3%	35.8%	98.3%	105%	103%	107%	99.7%	107%	91.9%	100%	83.2%	73.9%	69.8%	98.8%	95%	100%	97.3%	97%	107%	109%	52.2%	36.2%	32.3%	23.3%
CCC[S+](=O)([O-])Nc1ccc(F)c(C(=O)c2c[nH]c3ncc(-c4ccc(Cl)cc4)cc23)c1F	115%	123%	122%	115%	119%	124%	134%	123%	131%	115%	104%	105%	126%	120%	99.5%	127%	126%	128%	121%	128%	119%	107%	113%	98.5%	113%	121%	125%	120%	128%	113%	134%	122%	109%
Oc1ccc(C2CNCCc3c2cc(O)c(O)c3Cl)cc1 (centres undefined)	98%	103%	90%	91.2%	91.5%	104%	90.8%	48.5%	102%	89.5%	108%	83%	95%	97.2%	96.6%	84.6%	97.5%	90.8%	47.5%	103%	91.4%	94.6%	81.9%	93.1%	86.6%	96.6%	76.9%	112%	100%	70.2%	114%	101%	102%
CCCCc1oc2ccccc2c1C(=O)c1cc(I)c(OCCN(CC)CC)c(I)c1	–	–	–	–	–	–	–	–	–	–	–	108%	116%	132%	136%	115%	113%	136%	116%	119%	107%	97.6%	–	–	–	–	–	–	–	–	–	–	–
Cc1ccccc1C(C(=O)NC1CCCC1)N(C(=O)Cn1cnc2ccccc21)c1cccc(F)c1 (centres undefined)	133%	114%	119%	113%	112%	113%	124%	119%	108%	111%	80.9%	120%	126%	121%	128%	127%	122%	126%	122%	122%	112%	83%	119%	107%	128%	125%	137%	119%	120%	113%	126%	118%	84.9%
